US9809578B2, “Pyrazolyl urea, thiourea, guanidine and cyanoguanidine compounds as trkA kinase inhibitors” (Array BioPharma Inc., priority 2012, dated 2017)

molecular target: T1, His-tagged recombinant human TrkA (Homo sapiens, UniProt P04629); assay: TrkA LanthaScreen Eu Kinase Binding Assay; settings: averaged IC50; LanthaScreen Eu kinase binding, TR-FRET; read-out: TrkA enzyme IC50
T1 construct: 6HIS tagged cytoplasmic domain from Invitrogen, Cat. No. PV3144; purchased Invitrogen PV3144
Experimental: TrkA binding activity was determined in a TrkA LanthaScreen™ Eu Kinase Binding Assay. […] Three fold serial dilutions of compounds of the invention in DMSO were added to a final percentage of 2% DMSO. […] The percent of control was calculated using a ratiometric emission factor. The IC50 values were determined by fitting a four parameter model to the percent of control data.

T1 sequence (P04629 440-796 limits assumed): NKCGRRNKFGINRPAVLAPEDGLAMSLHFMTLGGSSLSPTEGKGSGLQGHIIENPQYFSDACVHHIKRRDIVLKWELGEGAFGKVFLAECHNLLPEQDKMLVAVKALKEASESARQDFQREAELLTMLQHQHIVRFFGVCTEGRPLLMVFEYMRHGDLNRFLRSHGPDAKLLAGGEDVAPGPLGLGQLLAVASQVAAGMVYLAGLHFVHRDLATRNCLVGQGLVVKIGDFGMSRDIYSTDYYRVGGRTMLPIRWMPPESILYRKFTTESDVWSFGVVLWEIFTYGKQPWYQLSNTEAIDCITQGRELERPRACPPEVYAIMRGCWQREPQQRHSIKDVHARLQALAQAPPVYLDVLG

For Cc1c(-c2cnn(C)c2)nn(-c2ccccc2)c1NC(=O)Nc1cc(C2CC2)nn1-c1ccccc1 [Example 1, 1-(3-cyclopropyl-1-phenyl-1H-pyrazol-5-yl)-3-(1′,4-dimethyl-1-phenyl-1H,1′H-[3,4′-bipyrazol]-5-yl)urea], which IC50 is on record?
The IC50 was under 100 nM.

With Cc1cc(NC(=O)Nc2c(C)c(-c3cnn(C)c3)nn2-c2ccccc2)n(-c2ccccc2)n1 [Example 2, 1-(1′,4-dimethyl-1-phenyl-1H,1′H-[3,4′-bipyrazol]-5-yl)-3-(3-methyl-1-phenyl-1H-pyrazol-5-yl)urea] as the compound, how does the IC50 read?
The IC50 was 100 to 1000 nM.

Which IC50 does the source give for Cc1c(-c2ccc(=O)n(C)c2)nn(-c2ccccc2)c1NC(=O)Nc1cc(C(F)(F)F)nn1-c1ccccc1 [Example 4, 1-(4-methyl-3-(1-methyl-6-oxo-1,6-dihydropyridin-3-yl)-1-phenyl-1H-pyrazol-5-yl)-3-(1-phenyl-3-(trifluoromethyl)-1H-pyrazol-5-yl)urea] here?
Its IC50 is under 100 nM.

For Cc1c(-c2ccn(C)c(=O)c2)nn(-c2ccccc2)c1NC(=O)Nc1cc(C(F)(F)F)nn1-c1ccccc1 [Example 5, 1-(4-methyl-3-(1-methyl-2-oxo-1,2-dihydropyridin-4-yl)-1-phenyl-1H-pyrazol-5-yl)-3-(1-phenyl-3-(trifluoromethyl)-1H-pyrazol-5-yl)urea], which IC50 is on record?
The IC50 was under 100 nM.

Which IC50 does the source give for Cc1c(-c2cnn(C)c2)nn(-c2ccccc2)c1NC(=O)Nc1c(C)c(C(F)(F)F)nn1-c1ccccc1 [Example 6, 1-(1′,4-dimethyl-1-phenyl-1H,1′H-[3,4′-bipyrazol]-5-yl)-3-(4-methyl-1-phenyl-3-(trifluoromethyl)-1H-pyrazol-5-yl)urea] here?
Its IC50 is 100 to 1000 nM.

How did the IC50 turn out when Cc1c(-c2cnn(C)c2)nn(-c2ccccc2)c1NC(=O)Nc1cc(C2CC2(F)F)nn1-c1ccccc1 (centres unmarked) [Example 7, 1-(3-(2,2-difluorocyclopropyl)-1-phenyl-1H-pyrazol-5-yl)-3-(1′,4-dimethyl-1-phenyl-1H,1′H-[3,4′-bipyrazol]-5-yl)urea] was run?
The IC50 was under 100 nM.

Which IC50 does the source give for Cc1c(-c2cnn(C)c2)nn(-c2ccccc2)c1NC(=O)Nc1cc(C(C)C)nn1-c1ccccc1 [Example 8, 1-(1′,4-dimethyl-1-phenyl-1H,1′H-[3,4′-bipyrazol]-5-yl)-3-(3-isopropyl-1-phenyl-1H-pyrazol-5-yl)urea] here?
Its IC50 is 100 to 1000 nM.

How did the IC50 turn out when Cc1c(-c2cnn(C)c2)nn(-c2ccccc2)c1NC(=O)Nc1cc(CC(F)(F)F)nn1-c1ccccc1 [Example 9, 1-(1′,4-dimethyl-1-phenyl-1H,1′H-[3,4′-bipyrazol]-5-yl)-3-(1-phenyl-3-(2,2,2-trifluoroethyl)-1H-pyrazol-5-yl)urea] was run?
Its IC50 is 100 to 1000 nM.

With Cc1c(-c2cnn(C)c2)nn(-c2ccccc2)c1NC(=O)Nc1cc(CC(F)(F)F)nn1-c1ccc(F)cc1 [Example 10, 1-(1′,4-dimethyl-1-phenyl-1H,1′H-[3,4′-bipyrazol]-5-yl)-3-(1-(4-fluorophenyl)-3-(2,2,2-trifluoroethyl)-1H-pyrazol-5-yl)urea] as the compound, how does the IC50 read?
The IC50 was 100 to 1000 nM.

How did the IC50 turn out when COc1ncc(-c2nn(-c3ccccc3)c(NC(=O)Nc3cc(C(F)(F)F)nn3-c3ccccc3)c2C)cn1 [Example 11, 1-(3-(2-methoxypyrimidin-5-yl)-4-methyl-1-phenyl-1H-pyrazol-5-yl)-3-(1-phenyl-3-(trifluoromethyl)-1H-pyrazol-5-yl)urea] was run?
The IC50 was under 100 nM.

Which IC50 does the source give for Cc1c(OCCO)nn(-c2ccccc2)c1NC(=O)Nc1cc(C(F)(F)F)nn1-c1ccccc1 [Example 12, 1-(3-(2-hydroxyethoxy)-4-methyl-1-phenyl-1H-pyrazol-5-yl)-3-(1-phenyl-3-(trifluoromethyl)-1H-pyrazol-5-yl)urea] here?
Its IC50 is under 100 nM.
